This note sets out measurements from US11203591B2, “Substituted 6-azabenzimidazole compounds” (Gilead Sciences, Inc., priority 2018, dated 2021).

Structures are written as SMILES.

Chain of human HPK1 (MAP4K1) (Q92918 17-274): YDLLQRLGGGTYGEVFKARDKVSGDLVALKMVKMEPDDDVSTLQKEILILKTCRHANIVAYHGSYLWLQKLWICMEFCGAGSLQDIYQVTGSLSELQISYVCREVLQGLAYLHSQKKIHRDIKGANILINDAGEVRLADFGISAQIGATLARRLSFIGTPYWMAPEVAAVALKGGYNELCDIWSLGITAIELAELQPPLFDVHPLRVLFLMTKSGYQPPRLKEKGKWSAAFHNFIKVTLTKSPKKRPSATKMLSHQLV

This experiment addresses human HPK1 (MAP4K1) (Homo sapiens (Human), UniProt Q92918). Description: HPK1 IC50 Assay (TR-FRET peptide phosphorylation). It counts as biochemical. The note with it: recombinant HPK1 kinase domain 0.15 nM, 10 μM ATP, 1 μM STK S1 peptide; geometric mean of multiple experiments. The protocol: The enzymatic activity of human HPK1 (MAP4K1) was monitored in a biochemical assay in the presence or absence of compounds and using a synthetic peptide substrate. An increase in phosphorylation of the peptide by HPK1 was indicative of its kinase activity.
Recombinant HPK1 kinase domain produced via baculovirus infection of insect cells was obtained from Proteros (Proteros Biostructures #PR-0322) and was pre-activated in the presence of 2 mM ATP (Sigma-Aldrich, cat #GE27-2056-01) and 2 mM magnesium chloride for 16 hours at 4° C. The protein reaction mixture was then loaded to a desalting column (Thermo Fisher Scientific, Cat #89889) to remove excess ATP. HPK1 was eluted with buffer containing 20 mM Tris (2-Amino-2-(hydroxymethyl)propane-1,3-diol) pH 8.0, 150 mM NaCl, 2 mM dithiothreitol and 5% glycerol, and was frozen at −80° C. for later use. HPK1 dual phosphorylation was confirmed by mass spectrometry.
Ten nanoliters of test compounds dissolved in DMSO at various concentrations were dispensed into a 384-well ProxiPlate (PerkinElmer #6008289). Five microliters of a solution of recombinant HPK1 diluted in HPK1 kinase assay buffer (50 mM BES [N,N-Bis(2-hydroxyethyl)-2-aminoethanesulfonic acid], pH 7.0; 10 mM magnesium chloride; 0.01% Triton X-100; 1 mM dithiothreitol; 0.01% bovine serum albumin; 0.1 mM sodium orthovanadate) was added to the compound-containing plate and was incubated for 15 minutes at 25° C. Five microliters of a mixture of ATP (Sigma-Aldrich #A6559) and peptide substrate STK S1 (Cisbio #61ST1BLC) diluted in HPK1 kinase assay buffer was then added to start the reaction. Final concentrations were 0.15 nM for HPK1, 10 μM for ATP, and 1 μM for the STK S1 peptide substrate. The reaction mixture was incubated at 25° C. for 3 hours and was stopped with the addition of 10 μl of an EDTA (Ethylenediaminetetraacetic acid)-containing detection buffer (Cisbio #62SDBRDF) supplemented with Europium cryptate-labeled anti-phospho-serine/threonine antibodies (Cisbio #62ST1PEJ) and XL665-labeled streptavidin (Cisbio #610SAXLG). The mixture was incubated for 16 hours at room temperature and peptide phosphorylation was measured by time-resolved fluorescence energy transfer (665 nm/620 nm) on an Envision plate reader (PerkinElmer).
Data in Table 1 were normalized based on positive (staurosporine) and negative (DMSO) controls. Least squares curve fittings were performed using a four-parameter variable slope nonlinear regression model. IC50 is defined as the concentration of compound required to inhibit 50% of maximum phosphorylation. IC50 values from multiple experiments were averaged by geometric mean and the standard deviation was calculated.
For orientation: Time-resolved FRET reads energy transfer from a long-lived donor to a nearby acceptor.
What is called IC50 is the concentration that gives 50% inhibition. Take `Cc1cc(F)c(Nc2nc(-c3ccc4c(c3)N([C@H]3C[C@@H](N5CCCCC5)C3)C(=O)C4(C)C)cc3ncn(C(C)C)c23)cc1C(=O)NC1(C(F)F)CC1` [Example 65]: the IC50 turned out to be 0.1 nM. Under `Cc1cc(F)c(Nc2nc(-c3ccc4c(c3)N([C@H]3C[C@@H](N5C[C@H]6CC[C@@H]5C6)C3)C(=O)C4(C)C)cc3ncn(C(C)C)c23)cc1C(=O)NC1(C(F)F)CC1` [Example 66] stands 0.09 nM.

Regarding `Cc1cc(F)c(Nc2nc(-c3cnc4c(c3)N([C@H]3C[C@@H](N5CCCCC5)C3)C(=O)C4(C)C)cc3ncn(C(C)C)c23)cc1C(=O)NC1(C(F)F)CC1` [Example 67], the IC50 was 0.3 nM.

For the compound `CNC(=O)c1cc(Nc2nc(-c3ccc4c(c3)N([C@H]3C[C@@H](N5CCCCC5)C3)C(=O)C43CCN(C4COC4)CC3)cc3ncn(C(C)C)c23)c(F)cc1C` [Example 68], the IC50 was found to be 0.2 nM. Under `CCNC(=O)c1cc(Nc2nc(-c3ccc4c(c3)N([C@H]3C[C@@H](N5CCCCC5)C3)C(=O)C43CCN(C4COC4)CC3)cc3ncn(C(C)C)c23)c(F)cc1C` [Example 69] stands 0.1 nM.

As for `CNC(=O)c1cc(Nc2nc(-c3ccc4c(c3)N([C@H]3C[C@@H](N5CC6C(C5)C6(F)F)C3)C(=O)C43CCN(C4COC4)CC3)cc3ncn(C(C)C)c23)c(F)cc1C` (some centres unmarked) [Example 70], the IC50 is 0.7 nM. Regarding `CNC(=O)c1cc(Nc2nc(-c3ccc4c(c3)N([C@H]3C[C@@H](N5CC[C@@H](F)C5)C3)C(=O)C43CCN(C4COC4)CC3)cc3ncn(C(C)C)c23)c(F)cc1C` [Example 71], the concentration for half-maximal inhibition (IC50) is 0.1 nM. The same measure for `CNC(=O)c1cc(Nc2nc(-c3ccc4c(c3)N([C@H]3C[C@@H](N5CC[C@H](F)C5)C3)C(=O)C43CCN(C4COC4)CC3)cc3ncn(C(C)C)c23)c(F)cc1C` [Example 72]: 0.2 nM. The same measure for `Cc1ccc(Nc2nc(-c3ccc4c(c3)N([C@H]3C[C@@H](N5CCCCC5)C3)C(=O)C43CCN(C4COC4)CC3)cc3ncn(C(C)C)c23)cc1C(=O)NC(C)C` [Example 73]: 0.1 nM; for `CCNC(=O)c1cc(Nc2nc(-c3ccc4c(c3)N([C@H]3C[C@@H](N5CCCCC5)C3)C(=O)C43CCN(C(C)=O)CC3)cc3ncn(C(C)C)c23)c(F)cc1C` [Example 74]: 0.2 nM; for `CC(=O)N1CCC2(CC1)C(=O)N([C@H]1C[C@@H](N3CCCCC3)C1)c1cc(-c3cc4ncn(C(C)C)c4c(Nc4cc(C(=O)NCC(C)C)c(C)cc4F)n3)ccc12` [Example 75]: 0.2 nM. `CC(=O)N1CCC2(CC1)C(=O)N([C@H]1C[C@@H](N3CCCCC3)C1)c1cc(-c3cc4ncn(C(C)C)c4c(Nc4cc(C(=O)NC5CCC5)c(C)cc4F)n3)ccc12` [Example 76]: the IC50 turned out to be 0.2 nM. For the compound `CC(=O)N1CCC2(CC1)C(=O)N([C@H]1C[C@@H](N3C4CCC3COC4)C1)c1cc(-c3cc4ncn(C(C)C)c4c(Nc4cc(C(=O)NC(C)C)c(C)cc4F)n3)ccc12` [Example 77], the IC50 came to 0.06 nM. `CC(=O)N1CCC2(CC1)C(=O)N([C@H]1C[C@@H](N3CC4CCC(C3)O4)C1)c1cc(-c3cc4ncn(C(C)C)c4c(Nc4cc(C(=O)NC(C)C)c(C)cc4F)n3)ccc12` [Example 78]: the IC50 was found to be 0.2 nM. The same measure for `CNC(=O)c1cc(Nc2nc(-c3ccc4c(c3)N([C@H]3C[C@@H](N5CCCCC5)C3)C(=O)C4(C)C)cc3ncn(C4CC4)c23)ccc1C` [Example 79]: 0.2 nM. Consider `CNC(=O)c1cc(Nc2nc(-c3ccc4c(c3)N([C@H]3C[C@@H](NC5CCC(F)(F)CC5)C3)C(=O)C4(C)C)cc3ncn(C(C)C)c23)ccc1C` [Example 80], for which the IC50 came out at 0.1 nM. Under `CNC(=O)c1cc(Nc2nc(-c3ccc4c(c3)N([C@H]3C[C@@H](NC5CC(F)(F)C5)C3)C(=O)C4(C)C)cc3ncn(C(C)C)c23)ccc1C` [Example 81] stands 0.3 nM; under `CNC(=O)c1cc(Nc2nc(-c3ccc4c(c3)N([C@H]3C[C@@H](NCC(C)(C)F)C3)C(=O)C4(C)C)cc3ncn(C(C)C)c23)ccc1C` [Example 82], 0.08 nM. The same measure for `CC(=O)N1CCC2(CC1)C(=O)N([C@H]1C[C@@H](N3CCCCC3)C1)c1cc(-c3cc4ncn(C(C)C)c4c(Nc4ccc(C)c(C(=O)NC(C)C)c4)n3)ccc12` [Example 83, 5-((6-(1′-acetyl-2-oxo-1-((1s,3s)-3-(piperidin-1-yl)cyclobutyl)spiro[indoline-3,4′-piperidin]-6-yl)-3-isopropyl-3H-imidazo[4,5-c]pyridin-4-yl)amino)-N-isopropyl-2-methylbenzamide]: 0.1 nM; for `CNC(=O)c1cc(Nc2nc(-c3ccc4c(c3)N([C@H]3C[C@@H](N5CCCCC5)C3)C(=O)C43CCN(C(=O)C4(O)CC4)CC3)cc3ncn(C4CC4)c23)ccc1C` [Example 84]: 0.2 nM. Under `CNC(=O)c1cc(Nc2nc(-c3ccc4c(c3)N([C@H]3C[C@@H](N5CCCCC5)C3)C(=O)C43CCN(C(=O)C4(C)COC4)CC3)cc3ncn(C4CC4)c23)ccc1C` [Example 85] stands 0.1 nM; under `COCCNC(=O)c1cc(Nc2nc(-c3ccc4c(c3)N([C@H]3C[C@@H](N5CCCCC5)C3)C(=O)C43CCN(C(C)=O)CC3)cc3ncn(C(C)C)c23)c(F)cc1C` [Example 86], 0.2 nM; under `CC[C@@H](C)NC(=O)c1cc(Nc2nc(-c3ccc4c(c3)N([C@H]3C[C@@H](N5CCCCC5)C3)C(=O)C43CCN(C(C)=O)CC3)cc3ncn(C(C)C)c23)c(F)cc1C` [Example 87], 0.3 nM.

Regarding `CC[C@H](C)NC(=O)c1cc(Nc2nc(-c3ccc4c(c3)N([C@H]3C[C@@H](N5CCCCC5)C3)C(=O)C43CCN(C(C)=O)CC3)cc3ncn(C(C)C)c23)c(F)cc1C` [Example 88], the IC50 is 0.2 nM. Regarding `CC(=O)N1CCC2(CC1)C(=O)N([C@H]1C[C@@H](N3CCCCC3)C1)c1cc(-c3cc4ncn(C(C)C)c4c(Nc4cc(C(=O)NC(C)C)c(Cl)cc4F)n3)ccc12` [Example 89], the IC50 amounted to 0.2 nM.

Turning to `COCC1(NC(=O)c2cc(Nc3nc(-c4ccc5c(c4)N([C@H]4C[C@@H](N6CCCCC6)C4)C(=O)C54CCN(C(C)=O)CC4)cc4ncn(C(C)C)c34)c(F)cc2C)CC1` [Example 90], the IC50 amounted to 0.3 nM. The same measure for `CC(=O)N1CCC2(CC1)C(=O)N([C@H]1C[C@@H](N3CCCCC3)C1)c1cc(-c3cc4ncn(C(C)C)c4c(Nc4cc(C(=O)NC5CC5)c(C)cc4F)n3)ccc12` [Example 91]: 0.1 nM; for `CNC(=O)c1cc(Nc2nc(-c3ccc4c(c3)N([C@H]3C[C@@H](N5CCCCC5)C3)C(=O)C43CCN(C(C)=O)CC3)cc3ncn(C(C)C)c23)c(F)cc1C` [Example 92]: 0.08 nM; for `CNC(=O)c1cc(Nc2nc(-c3ccc4c(c3)N([C@H]3C[C@@H](N5CCCCC5)C3)C(=O)C43CCN(C(C)=O)CC3)cc3ncn(C4CC4)c23)c(F)cc1Cl` [Example 93]: 0.2 nM. The same measure for `CC(=O)N1CCC2(CC1)C(=O)N([C@H]1C[C@@H](N3CCCCC3)C1)c1cc(-c3cc4ncn(C(C)C)c4c(Nc4ccc(C)c(C(=O)NC5CC5)c4)n3)ccc12` [Example 94]: 0.06 nM; for `CNC(=O)c1cc(Nc2nc(-c3ccc4c(c3)N([C@H]3C[C@@H](N5CCCCC5)C3)C(=O)C43CCN(C(C)=O)CC3)cc3ncn(C4CC4)c23)c(F)cc1C` [Example 95]: 0.3 nM. Under `CNC(=O)c1cc(Nc2nc(-c3ccc4c(c3)N([C@H]3C[C@@H](N5CCCCC5)C3)C(=O)C43CCN(C(C)=O)CC3)cc3ncn(C4CC4)c23)cc(C)c1C` [Example 96] stands 0.2 nM.
